From patent US20250090477A1, “TRANSDERMAL PATCH PROVIDING IMPROVED PERMEABILITY AND COMPOSITION” (HydraPatch Inc., priority 2019, published 2025)

Experiment: effect of including leucine in the patch formula on appetite levels
Assay type: in vivo
Settings: inclusion of leucine in the formula of the adhesive matrix; found experimentally, no method or data given
Description: In an exemplary embodiment, adhesive matrix 130 may further include an anti-inflammatory. While dimethyl sulfoxide and menthol may in and of themselves act as anti-inflammatories, additional ingredients acting as dedicated anti-inflammatories may be added. For the purposes of this specification, “anti-inflammatory” is used to mean any medication, compound, or ingredient recognized by the FDA as useful for anti-inflammatory purposes. Yet further, adhesive matrix 130 may include amino acids. Leucine is an exemplary amino acid which may be incorporated into the formula. Leucine may function in the patch to synthesize sterols, and may also act to regulate blood pressure, energy levels, and hormone secretion. […] Adhesive matrix 130 may further comprises glycerin. Glycerin may act as a plasticizer and humectant to preserve the flexibility and formulaic integrity of adhesive matrix 130, and may also provide additional benefits of relieving skin irritation and reducing interference with skin oils when transdermal patch 100 is placed in contact with skin.

## CC(C)C[C@H](N)C(=O)O [leucine, Leucine]
  appetite levels: reduce appetite levels
